Molecular target: Muscarinic acetylcholine receptor M3 (Cavia porcellus) (UniProt Q8VH26)
Assay: Antimuscarinic activity was evaluated against muscarinic M3 receptor in Guinea-Pig ileum
Type: tissue-based

Chain of Muscarinic acetylcholine receptor M3 (Cavia porcellus) (Q8VH26 1-587): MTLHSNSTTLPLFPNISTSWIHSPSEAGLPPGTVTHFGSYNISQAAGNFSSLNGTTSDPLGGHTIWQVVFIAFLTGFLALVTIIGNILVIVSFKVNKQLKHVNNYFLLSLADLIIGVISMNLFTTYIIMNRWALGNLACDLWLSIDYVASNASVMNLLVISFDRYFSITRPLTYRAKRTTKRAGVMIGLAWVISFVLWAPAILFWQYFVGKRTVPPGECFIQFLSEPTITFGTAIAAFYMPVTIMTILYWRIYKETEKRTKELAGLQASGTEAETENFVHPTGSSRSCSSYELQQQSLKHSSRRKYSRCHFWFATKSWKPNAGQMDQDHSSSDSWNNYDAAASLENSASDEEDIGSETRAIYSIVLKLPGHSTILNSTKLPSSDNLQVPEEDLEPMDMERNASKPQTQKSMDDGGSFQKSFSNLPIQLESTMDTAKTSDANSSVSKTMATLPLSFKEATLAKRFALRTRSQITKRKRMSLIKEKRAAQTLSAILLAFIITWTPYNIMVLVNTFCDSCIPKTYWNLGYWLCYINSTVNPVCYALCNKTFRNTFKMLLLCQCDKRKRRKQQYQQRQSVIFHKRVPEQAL

SMILES | Kb [nM]
CCc1nccn1CCC(C(N)=O)(c1ccccc1)c1ccccc1 | 78.1
CCCc1nccn1CCC(C(N)=O)(c1ccccc1)c1ccccc1 | 177
CC(CC(c1ccccc1)c1ccccc1)NC(C)(C)C (centres undefined) | 67.7
Cc1cncn1CCC(C(N)=O)(c1ccccc1)c1ccccc1 | 0.86
CC(C)(C)c1nccn1CCC(C(N)=O)(c1ccccc1)c1ccccc1 | 30.2
Cc1ncn(CCC(C(N)=O)(c2ccccc2)c2ccccc2)c1C | 2.7
CC(C)c1nccn1CCC(C(N)=O)(c1ccccc1)c1ccccc1 | 1.8
CCc1ncn(CCC(C(N)=O)(c2ccccc2)c2ccccc2)c1CC | 3.98
CCN(CC)CCC(c1ccccc1)c1ccccc1 | 197
c1ccc(C(CCN2CCCCC2)c2ccccc2)cc1 | 69.6
Cc1cn(CCC(C(N)=O)(c2ccccc2)c2ccccc2)cn1 | 10.1
CCCc1ncn(CCC(C(N)=O)(c2ccccc2)c2ccccc2)c1CCC | 100
N#CC(CCN1CCCC1)(c1ccccc1)c1ccccc1 | 65.7
NC(=O)C(CCn1cnc2ccccc21)(c1ccccc1)c1ccccc1 | 2130
c1ccc(C(CCn2ccnc2)c2ccccc2)cc1 | 89.1
Cc1nccn1CCC(C(N)=O)(c1ccccc1)c1ccccc1 | 0.32
CC(C)(C)NCCC(c1ccccc1)c1ccccc1 | 792
NC(=O)C(CCn1ccnc1)(c1ccccc1)c1ccccc1 | 5.07
NC(=O)C(CCN1CCCC1)(c1ccccc1)c1ccccc1 | 5.59

Source: ChEMBL document CHEMBL1130881, “Novel imidazole derivatives with subtype-selective antimuscarinic activity (1)” (Bioorg Med Chem Lett, 1998)
